Test results as given in patent US6806230B1, “Pyrimidine derivatives and herbicides containing them” (Kumiai Chemical Industry Co., Ltd., priority 1999, dated 2004).

How the values were obtained:
Format in all cases: in vivo
[1] = tested on: barnyard grass (Eo); assay: Test Example 1: herbicidal effects by flooded paddy field treatment; parameters: herbicidal effects, Eo (barnyard grass):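 0-5 growth inhibition grade; 5 = over 90%; 4 = 70-90%; 3 = 50-70%; 2 = 30-50%; 1 = 10-30%; 0 = under 10%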; details: for Herbicidal effect index, Eo: dose 100 gai/10a, examined on 21st day after treatment, index 0-5 per Table 44; for herbicidal effects, Eo (barnyard grass): dose 100 g active ingredient per 10 ares, examined on the 21st day after treatment, standards of Table 44;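 for Herbicidal effect index, Eo: 0-5 growth inhibition grade; 5 = over 90%; 4 = 70-90%; 3 = 50-70%; 2 = 30-50%; 1 = 10-30%; 0 = under 10%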
How it was run: (§1)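 Flooded paddy pre-emergence test: sowing into puddled soil under 3 cm water, then dropwise water-surface treatment the following day with diluted wettable powder at 100 g active ingredient per 10 ares. Greenhouse cultivation followed, and weeds were rated against a standard scale at 21 days.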

[2] = tested on: barnyard grass (Ec); assay: Test Example 2: herbicidal effects by upland soil treatment; parameters: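 0-5 growth inhibition grade; 5 = over 90%; 4 = 70-90%; 3 = 50-70%; 2 = 30-50%; 1 = 10-30%; 0 = under 10%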; details: dose 100 g active ingredient per 10 ares, examined on the 21st day after treatment, standards of Table 44
How it was run: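 Pre-emergence test: barnyard grass and green foxtail sown in upland soil, then soil surface sprayed with wettable-powder formulation at 100 g active ingredient per 10 ares (100 l per 10 ares). Grown in greenhouse; herbicidal effect scored on a rating scale 21 days after treatment.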

[3] = tested on: green foxtail (Se); assay: as above; details: dose 100 g active ingredient per 10 ares, examined on the 21st day after treatment, standards of Table 44;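 note: 0-5 growth inhibition grade; 5 = over 90%; 4 = 70-90%; 3 = 50-70%; 2 = 30-50%; 1 = 10-30%; 0 = under 10%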
Description: In a 80 cm^2 plastic pot, upland soil was filled, and seeds of barnyard grass (Ec) and green foxtail (Se) were sown and covered with soil. A wettable powder prepared in accordance with Formulation Example 1 was diluted with water and uniformly applied to the soil surface by means of a small size spray at a rate of 100 l per 10 ares, so that the dose of the active ingredient would be 100 g per 10 ares. Thereafter, cultivation was carried out in a green house, and on the 21st day after the treatment, the herbicidal effects were examined in accordance with the standards as identified in Table 44.

[4] = tested on: rice (Or); assay: Test Example 4: selectivity for a crop plant by flooded paddy field treatment; parameters: scale not given here; details: rice transplanted at second leaf stage; for Or (effect on crop plant rice, index): dose 25 g active ingredient per 10 ares, examined on the 21st day after treatment; for Or (herbicidal effect index on crop): dose 25 gai/10a, 21st day after treatment, index per Table 44
How it was run: (§2)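 Steps: fill pot with paddy soil and puddle; sow weed seeds; transplant rice at second-leaf stage; flood to 3 cm. Next day, drip the water-diluted wettable powder onto the water (25 g a.i./10 ares). Grow in greenhouse and rate herbicidal effect on day 21.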

[5] = tested on: barnyard grass (Eo); assay: as above; parameters: scale not given here; details: for Eo (herbicidal effects, index): dose 25 g active ingredient per 10 ares, examined on the 21st day after treatment; for Eo (herbicidal effect index): barnyard grass, dose 25 gai/10a, 21st day after treatment, index per Table 44
How it was run: as §2

[6] = tested on: monochoria (Mo); assay: as above; parameters: scale not given here; details: for Mo (herbicidal effects, index): dose 25 g active ingredient per 10 ares, examined on the 21st day after treatment; for Mo (herbicidal effect index): monochoria, dose 25 gai/10a, 21st day after treatment, index per Table 44
How it was run: as §2

[7] = tested on: monochoria (Mo); assay: Test Example 1: herbicidal effects by flooded paddy field treatment; parameters: herbicidal effects, Mo (monochoria):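 0-5 growth inhibition grade; 5 = over 90%; 4 = 70-90%; 3 = 50-70%; 2 = 30-50%; 1 = 10-30%; 0 = under 10%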; details: for Herbicidal effect index, Mo: dose 100 gai/10a, examined on 21st day after treatment, index 0-5 per Table 44; for herbicidal effects, Mo (monochoria): dose 100 g active ingredient per 10 ares, examined on the 21st day after treatment, standards of Table 44;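 for Herbicidal effect index, Mo: 0-5 growth inhibition grade; 5 = over 90%; 4 = 70-90%; 3 = 50-70%; 2 = 30-50%; 1 = 10-30%; 0 = under 10%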
How it was run: as §1

| SMILES | Herbicidal effect index, Eo [1] | herbicidal effects, Ec (barnyard grass) [2] | herbicidal effects, Se (green foxtail) [3] | Or (effect on crop plant rice, index) [4] | Eo (herbicidal effects, index) [5] | Mo (herbicidal effects, index) [6] | Herbicidal effect index, Mo [7] | Or (herbicidal effect index on crop) [4] | Eo (herbicidal effect index) [5] | Mo (herbicidal effect index) [6] | herbicidal effects, Eo (barnyard grass) [1] | herbicidal effects, Mo (monochoria) [7] |
| --- | --- | --- | --- | --- | --- | --- | --- | --- | --- | --- | --- | --- |
| CCc1ccc(CC(=O)N(C)C(c2cncnc2C(F)(F)F)C(C)C)cc1 (racemic) [Compound 1-67] | 5 | 5 | 5 | 1 | 5 | 5 | 5 |  |  |  |  |  |
| Cc1ccc(CC(=O)N(C)C(c2cncnc2C(F)(F)F)C(C)C)cc1C (racemic) [Compound 1-72] | 5 | 5 | 4 | 0 | 5 | 5 | 5 |  |  |  |  |  |
| CC(C)C(c1cncnc1C(F)(F)F)N(C)C(=O)Cc1cccc([N+](=O)[O-])c1 (racemic) [Compound 1-74] | 5 | 5 | 5 | 0 | 5 | 5 | 5 |  |  |  |  |  |
| CN(C(=O)Cc1ccccc1)C(c1cncnc1C(F)(F)Cl)C1CC1 (racemic) [Compound 1-91] | 5 | 4 | 5 | 1 | 5 | 5 | 5 |  |  |  |  |  |
| CC(C)C(c1cncnc1C(F)(F)F)N(C(=O)Cc1ccccc1)C(C)C (racemic) [Compound 1-103] | 5 | 5 | 5 |  |  |  | 5 | 1 | 5 | 5 |  |  |
| COCN(C(=O)Cc1ccc(C)cc1)C(c1cncnc1C(F)(F)F)C(C)C (racemic) [Compound 1-106] | 5 | 5 | 4 |  |  |  | 5 | 0 | 5 | 5 |  |  |
| CC(C)C(c1cncnc1C(F)(F)F)N(C)C(=O)OCc1ccccc1 (racemic) [Compound 1-118] | 5 | 5 | 5 |  |  |  | 5 | 0 | 5 | 3 |  |  |
| Cc1cc(CC(=O)N(C)C(c2cncnc2C(F)(F)F)C(C)C)ccc1Cl (racemic) [Compound 1-120] | 5 | 5 | 4 |  |  |  | 5 | 0 | 5 | 5 |  |  |
| Cc1ccc(CC(=O)N(C)C(c2cncnc2C(F)(F)F)C(C)C)cc1Cl (racemic) [Compound 1-121] | 5 | 5 | 4 |  |  |  | 5 | 1 | 5 | 5 |  |  |
| CC(C)C(c1cncnc1C(F)(F)F)N(C)C(=O)Cc1c(F)cccc1F (racemic) [Compound 1-123] | 5 | 5 | 5 |  |  |  | 5 | 1 | 5 | 5 |  |  |
| CC(C)C(c1cncnc1C(F)(F)F)N(C)C(=O)Cc1ccc(Cl)cc1Cl (racemic) [Compound 1-124] | 5 | 5 | 5 |  |  |  | 5 | 0 | 5 | 5 |  |  |
| CC(C)C(c1cncnc1C(F)(F)F)N(C)C(=O)COc1ccccc1F (racemic) [Compound 1-125] | 5 | 5 | 5 |  |  |  | 5 | 0 | 5 | 5 |  |  |
| CC(C)C(c1cncnc1C(F)(F)F)N(C)C(=O)COc1cccc(F)c1 (racemic) [Compound 1-126] | 5 | 5 | 5 |  |  |  | 5 | 1 | 5 | 5 |  |  |
| CC(C)c1ncncc1C(C(C)C)N(C)C(=O)Cc1ccc(Cl)cc1 (racemic) [Compound 1-130] |  | 5 | 5 |  |  |  |  | 1 | 5 | 5 | 5 | 5 |
| Cc1ccc(CC(=O)N(C)C(c2cncnc2C(C)C)C(C)C)cc1 (racemic) [Compound 1-131] |  | 5 | 5 |  |  |  |  | 1 | 5 | 5 | 5 | 5 |
| Cc1ccccc1OCC(=O)N(C)C(c1cncnc1C(F)(F)F)C(C)C (racemic) [Compound 1-134] |  | 5 | 5 |  |  |  |  | 0 | 5 | 5 | 5 | 5 |
| Cc1cccc(OCC(=O)N(C)C(c2cncnc2C(F)(F)F)C(C)C)c1 (racemic) [Compound 1-135] |  | 5 | 5 |  |  |  |  | 1 | 5 | 5 | 5 | 5 |
| Cc1ccc(OCC(=O)N(C)C(c2cncnc2C(F)(F)F)C(C)C)cc1 (racemic) [Compound 1-136] |  | 5 | 5 |  |  |  |  | 1 | 5 | 5 | 5 | 5 |
| CN(C(=O)Cc1ccc(Cl)cc1)C(c1cncnc1C(F)(F)F)C1CCCC1 (racemic) [Compound 1-139] |  | 5 | 5 |  |  |  |  | 0 | 5 | 5 | 5 | 5 |
| CN(C(=O)Cc1ccc(Br)cc1)C(c1cncnc1C(F)(F)F)C1CCCC1 (racemic) [Compound 1-140] |  | 5 | 5 |  |  |  |  | 0 | 5 | 5 | 5 | 5 |
| Cc1ccc(CC(=O)N(C)C(c2cncnc2C(F)(F)F)C2CCCC2)cc1 (racemic) [Compound 1-141] |  | 5 | 5 |  |  |  |  | 1 | 5 | 5 | 5 | 5 |
| Cc1ccc(CC(=S)N(C)C(c2cncnc2C(F)(F)F)C(C)C)cc1 (racemic) [Compound 1-145] |  | 5 | 5 |  |  |  |  | 1 | 5 | 5 | 5 | 5 |
| CC(C)C(c1cncnc1C(F)(F)F)N(C)C(=O)Cc1ccc2c(c1)OCO2 (racemic) [Compound 1-146] |  | 4 | 4 |  |  |  |  | 1 | 5 | 5 | 5 | 5 |
